Data: patent US10752587B2, “Homobispiperidinyl derivatives as liver X receptor beta agonists, compositions and their use” (Merck Sharp & Dohme Corp., priority 2015, dated 2020)
Read-outs that look alike come from different tables or passages of the source.

Columns and labels:
[1] = target: T1, glutathione-S-transferase (GST) tagged LXRbeta LBD (ligand binding domain) (Homo sapiens, UniProt P55055); test: LanthaScreen TR-FRET Liver X Receptor Coactivator Assay, co-activator recruitment to LXRbeta LBD; type: biochemical
T1 construct: purchased Invitrogen pv4658.pps
T1 sequence (P55055 222-460 limits assumed): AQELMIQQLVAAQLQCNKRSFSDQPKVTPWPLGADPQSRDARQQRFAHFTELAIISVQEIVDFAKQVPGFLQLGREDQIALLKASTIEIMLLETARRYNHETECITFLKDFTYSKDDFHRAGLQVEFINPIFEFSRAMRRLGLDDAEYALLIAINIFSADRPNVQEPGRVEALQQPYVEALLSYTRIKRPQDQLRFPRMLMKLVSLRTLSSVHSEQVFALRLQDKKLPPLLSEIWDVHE
How it was run: (§1)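 Compound-induced coactivator recruitment by the GST-fused ligand binding domain, detected as TR-FRET between Tb-labelled anti-GST antibody and fluorescein-tagged coactivator peptide after room-temperature incubation. IP and Emax expressed versus T0901317 as reference agonist.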

[2] = target: T2, glutathione-S-transferase (GST) tagged LXRalpha LBD (ligand binding domain) (Homo sapiens, UniProt Q13133); test: LanthaScreen TR-FRET Liver X Receptor Coactivator Assay, co-activator recruitment to LXRalpha LBD; type: biochemical
T2 construct: purchased Invitrogen pv4655
T2 sequence (Q13133 209-447 limits assumed): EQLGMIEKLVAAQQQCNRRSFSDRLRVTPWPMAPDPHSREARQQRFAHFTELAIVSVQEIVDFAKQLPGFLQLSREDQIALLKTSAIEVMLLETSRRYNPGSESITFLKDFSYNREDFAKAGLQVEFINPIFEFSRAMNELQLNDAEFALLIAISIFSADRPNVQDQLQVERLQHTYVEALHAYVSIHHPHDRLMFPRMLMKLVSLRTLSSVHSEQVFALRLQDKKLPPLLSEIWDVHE
How it was run: as §1

[3] = efficacy at max dose, in relation to reference dual agonist T0901317, read-out: LXR beta Activity @ max dose (%)
[4] = potency (Inflection Point, IP), co-activator recruitment to LXRbeta LBD, in relation to T0901317, read-out: LXR beta IP
[5] = efficacy at max dose, in relation to reference dual agonist T0901317, read-out: LXR alpha Activity @ max dose (%)
[6] = potency (Inflection Point, IP), co-activator recruitment to LXRalpha LBD, in relation to T0901317
[7] = potency (Inflection Point, IP), co-activator recruitment to LXRalpha LBD, in relation to T0901317, read-out: LXR alpha IP
[8] = co-activator recruitment to GST-LXRbeta LBD, TR-FRET, read-out: LXR beta IP (Inflection Point, potency)
[9] = efficacy in relation to reference dual agonist T0901317, read-out: LXR beta Activity @ max dose
[10] = efficacy in relation to reference dual agonist T0901317, read-out: LXR alpha Activity @ max dose

CN(C)C(=O)c1ccc(N2CCC(CC3CCN(C(=O)[C@](O)(c4cccc(OC5CC5)c4)C(F)(F)F)CC3)CC2)nc1Cl [Example 7-106, 2-chloro-6-{4-[(1-{(2R)-2-[3-(cyclopropyloxy)phenyl]-3,3,3-trifluoro-2-hydroxypropanoyl}piperidin-4-yl)methyl]piperidin-1-yl}-N,N-dimethylpyridine-3-carboxamide]
Emax [1, 3]: 41% | EC50 [1, 4]: 5 nM | Emax [2, 5]: 0% | LXR alpha IP (nM) [2, 6]: NO IP

CN(C)C(=O)c1ccc(N2CCC(CC3CCN(C(=O)[C@](O)(c4cccc(F)c4)C(F)(F)F)CC3)CC2)nc1Cl [Example 7-72, 2-chloro-N,N-dimethyl-6-[4-({1-[(2R)-3,3,3-trifluoro-2-(3-fluorophenyl)-2-hydroxypropanoyl]piperidin-4-yl}methyl)piperidin-1-yl]pyridine-3-carboxamide]
Emax [1, 3]: 91% | EC50 [1, 4]: 3 nM | Emax [2, 5]: 50% | EC50 [2, 7]: 88 nM

COc1cccc(CS(=O)(=O)N2CC(CC3CCN(c4ccc(C(=O)N(C)C)c(Cl)c4)CC3)C2)c1 [Example 13-3, 2-chloro-4-[4-({1-[(3-methoxybenzyl)-sulfonyl]azetidin-3-yl}methyl)piperidin-1-yl]-N,N-dimethyl-benzamide]
EC50 [1, 8]: 604 nM | Emax [1, 9]: 26% | LXR alpha IP (Inflection Point, potency) ([2]; co-activator recruitment to GST-LXRalpha LBD, TR-FRET): NO IP | Emax [2, 10]: 0%

CN(C)C(=O)c1ccc(N2CCC(CC3CCN(C(=O)C(O)(c4cccc5ccccc45)C(F)(F)F)CC3)CC2)cc1Cl (stereo not drawn) [Example 2-168, 2-chloro-N,N-dimethyl-4-(4-{[1-(3,3,3-trifluoro-2-hydroxy-2-naphthalen-1-ylpropanoyl)piperidin-4-yl]methyl}piperidin-1-yl)benzamide]
Emax [1, 3]: 21% | EC50 [1, 4]: 58 nM | Emax [2, 5]: 0% | LXR alpha IP (nM) [2, 6]: NO IP

CC(C)Oc1cccc([C@@](O)(C(=O)N2CC(CC3CCN(c4ccc(C(=O)N(C)C)c(Cl)c4)CC3)C2)C(F)(F)F)c1 [Example 2-60, 2-chloro-N,N-dimethyl-4-{4-[(1-{(2R)-3,3,3-trifluoro-2-hydroxy-2-[3-(1-methyl-ethoxy)phenyl]propanoyl}azetidin-3-yl)methyl]piperidin-1-yl}benzamide]
Emax [1, 3]: 66% | EC50 [1, 4]: 26 nM | Emax [2, 5]: 2% | LXR alpha IP (nM) [2, 6]: NO IP

COc1cccc(S(=O)(=O)N2CCC(CC3CCN(c4ccc(C(=O)N(C)C)c(Cl)c4)CC3)CC2)c1 [Example 13-11, 2-chloro-4-[4({1-[(3-methoxyphenyl)-sulfonyl]piperidin-4-yl}methyl)piperidin-1-yl]-N,N-dimethyl-benzamide]
EC50 [1, 8]: 98 nM | Emax [1, 9]: 64% | EC50 ([2]; co-activator recruitment to GST-LXRalpha LBD, TR-FRET, read-out: LXR alpha IP (Inflection Point, potency)): 733 nM | Emax [2, 10]: 23%

CCc1cccc([C@@](O)(C(=O)N2CCC(CC3CCN(c4ccc(C(N)=O)c(Cl)c4)CC3)CC2)C(F)(F)F)c1 [Example 12-6, 2-chloro-4-[4-({1-[(2R)-2-(3-ethylphenyl)-3,3,3-trifluoro-2-hydroxy-propanoyl]piperidin-4-yl}methyl)piperidin-1-yl]benzamide]
Emax [1, 3]: 40% | EC50 [1, 4]: 7 nM | Emax [2, 5]: 23% | EC50 [2, 7]: 30 nM

CN(C)C(=O)c1ccc(N2CCC(CC3CCN(C(=O)[C@@](O)(c4ccccc4)C(F)(F)F)CC3)CC2)cc1 [Example 2-127, N,N-dimethyl-4-[4-({1-[(2S)-3,3,3-trifluoro-2-hydroxy-2-phenyl-propanoyl]piperidin-4-yl}methyl)piperidin-1-yl]benzamide]
Emax [1, 3]: 68% | EC50 [1, 4]: 877 nM | Emax [2, 5]: 9% | LXR alpha IP (nM) [2, 6]: NO IP

CCc1cccc([C@@](O)(C(=O)N2CCC(C)(CC3CCN(c4ccc(C(=O)N(C)C)c(Cl)c4)CC3)CC2)C(F)(F)F)c1 [Example 2-52, 2-chloro-4-[4-({1-[(2R)-2-(3-ethyl-phenyl)-3,3,3-trifluoro-2-hydroxy-propanoyl]-4-methyl-piperidin-4-yl}methyl)piperidin-1-yl]-N,N-dimethyl-benzamide]
Emax [1, 3]: 20% | EC50 [1, 4]: 15 nM | Emax [2, 5]: 0% | LXR alpha IP (nM) [2, 6]: NO IP

CNC(=O)c1ccc(N2CCC(CC3CCN(C(=O)C(O)(c4cccc(Cl)c4)C(F)(F)F)CC3)CC2)cc1Cl (stereo not drawn) [Example 7-129, 2-chloro-4-[4-({1-[2-(3-chlorophenyl)-3,3,3-trifluoro-2-hydroxypropanoyl]piperidin-4-yl}methyl)piperidin-1-yl]-N-methylbenzamide]
LXR beta Activity @ max dose (%) ([1]; efficacy at max dose, in relation to reference dual agonist T0901317): 90% | EC50 [1, 4]: 16 nM | LXR alpha IP (nM) [2, 6]: NO IP

COc1cc(F)cc([C@@](O)(C(=O)N2CCC(CC3CCN(c4ccc(C(=O)N(C)C)cc4)CC3)CC2)C(F)(F)F)c1 [Example 2-137, N,N-dimethyl-4-[4-({1-[(2R)-3,3,3-trifluoro-2-(3-fluoro-5-methoxyphenyl)-2-hydroxy-propanoyl]piperidin-4-yl}methyl)piperidin-1-yl]benzamide]
Emax [1, 3]: 78% | EC50 [1, 4]: 30 nM | Emax [2, 5]: 15% | LXR alpha IP (nM) [2, 6]: NO IP

CN(C)C(=O)c1ccc(N2CCC(CC3CCN(C(=O)[C@@](O)(c4cccc(Cl)c4)C(F)(F)F)CC3)CC2)nc1Cl [Example 7-70, 2-chloro-6-[4-({1-[(2S)-2-(3-chlorophenyl)-3,3,3-trifluoro-2-hydroxypropanoyl]piperidin-4-yl}methyl)piperidin-1-yl]-N,N-dimethyl-pyridine-3-carboxamide]
Emax [1, 3]: 110% | EC50 [1, 4]: 25 nM | Emax [2, 5]: 34% | EC50 [2, 7]: 1250 nM

Cc1cc(N2CCC(CC3CCN(C(=O)[C@](O)(c4cccc(OC(C)C)c4)C(F)(F)F)CC3)CC2)ccc1C(=O)N(C)C [Example 2-147, N,N,2-trimethyl-4-{4-[(1-{(2R)-3,3,3-trifluoro-2-hydroxy-2-[3-(1-methylethoxy)phenyl]propanoyl}piperidin-4-yl)methyl]piperidin-1-yl}benzamide]
Emax [1, 3]: 52% | EC50 [1, 4]: 19 nM | Emax [2, 5]: 7% | LXR alpha IP (nM) [2, 6]: NO IP

CN(C)C(=O)c1ccc(N2CCC(CC3CCN(C(=O)C(O)(c4cccc(Cl)c4)C(F)(F)F)CC3)CC2)cc1Cl (stereo not drawn) [Example 2-17, 2-chloro-4-[4-({1-[2-(3-chlorophenyl)-3,3,3-trifluoro-2-hydroxy-propanoyl]piperidin-4-yl}methyl)piperidin-1-yl]-N,N-dimethyl-benzamide]
Emax [1, 3]: 63% | EC50 [1, 4]: 11 nM | Emax [2, 5]: 24% | EC50 [2, 7]: 140 nM

CN(C)C(=O)c1ccc(N2CCC(CC3CCN(C(=O)C(O)(c4cc(F)cc(Cl)c4)C(F)(F)F)CC3)CC2)nc1Cl (stereo not drawn) [Example 7-109, 2-chloro-6-[4-({1-[2-(3-chloro-5-fluorophenyl)-3,3,3-trifluoro-2-hydroxypropanoyl]piperidin-4-yl}methyl)piperidin-1-yl]-N,N-dimethyl-pyridine-3-carboxamide]
Emax [1, 3]: 107% | EC50 [1, 4]: 4 nM | Emax [2, 5]: 52% | EC50 [2, 7]: 51 nM

COc1cccc([C@@](O)(C(=O)N2CCC(CC3CCN(c4ccc(C(=O)N(C)C)c(Cl)c4)CC3)C2)C(F)(F)F)c1 (stereo partly drawn) [Example 2-72, 2-chloro-N,N-dimethyl-4-[4-({1-[(2R)-3,3,3-trifluoro-2-hydroxy-2-(3-methoxy-phenyl)propanoyl]pyrrolidin-3-yl}methyl)piperidin-1-yl]benzamide]
Emax [1, 3]: 39% | EC50 [1, 4]: 74 nM | Emax [2, 5]: 0% | LXR alpha IP (nM) [2, 6]: NO IP
